Results on one compound are retold here after patent US20170196859A1, “PHARMACEUTICAL COMPOSITION COMPRISING PYRAZINE CARBOXAMIDE COMPOUND AS ACTIVE INGREDIENT” (Astellas Pharma Inc., priority 2014, published 2017).

One experiment has as its target BTK kinase (Homo sapiens, UniProt Q06187). Kind of experiment: BTK kinase inhibitory activity (QSS Assist BTK_MSA kit). The class given is biochemical. To be noted: 30 min preincubation, ATP 1 mM, concentration as compound A free form. The procedure: The BTK kinase inhibitory activity was evaluated using QSS Assist BTK_MSA kit (Carna Bioscience).
The test compound B was dissolved in dimethyl sulfoxide (DMSO) to prepare a solution at a 100-fold concentration as compared to the final concentration. The solution was also 25-fold diluted with an appurtenant assay buffer to obtain a test compound B solution. In addition, BTK kinase appurtenant to the kit was used for the reaction.
5 μL of the test compound B solution at a 4-fold concentration, prepared using the aforementioned assay buffer, and 10 μL of a BTK kinase solution at a 2-fold concentration were mixed within a well of a 384 well plate, and left to undergo a reaction at room temperature for 30 minutes. Continuously, 5 μL of a substrate peptide/ATP/MgCl2 solution at a 4-fold concentration was added thereto to perform the reaction at room temperature for 1 hour. The substrate peptide was used at a final concentration of 1000 nM, ATP at a final concentration of 1 mM, and MgCl2 at a final concentration of 5 mM. Thereafter, 60 μL of an appurtenant termination buffer was added thereto to stop the reaction. The BTK kinase activity was calculated by quantifying a product conversion ratio obtained from the substrate peptide peak height and the product (phosphorylated substrate peptide) peak height with LabChip EZ Reader II (PerkinElmer). […]

The subject of experiment [1] is human acute myeloid leukemia cell line KG-1 cells. In words: Proliferation inhibition, KG-1 cells (CellTiter-Glo). To be noted: KG-1, 72 h, 3 days culture. The class given is cell-based. The procedure:
(§1) KG-1 is a cell line originated from human acute myeloid leukemia and the BTK expression has been confirmed (J. Immunol. 1994; 152(2):557-565). The human acute myeloid leukemia cell line KG-1 cells (American Type Culture Collection, CCL-246) cultured in RPMI1640 medium (Sigma) containing 10% bovine serum were seeded into 96 well plates. On the next day, DMSO solutions of the test compound B at final concentrations from 1 nM to 10 μM or only DMSO (DMSO group) were added thereto to culture the cells at 37° C. in 5% CO2 for 3 days. Thereafter, the cell number was measured using a cell counting reagent (CellTiter-Glo (registered trademark) Luminescent Cell Viability Assay (Promega)). The cell proliferation inhibition rate was calculated as the measured value in the DMSO group set as 0% inhibition and the measured value in the well only with the medium on which the cells have not been seeded set as 100% inhibition.

The subject of experiment [2] is human acute myeloid leukemia cell line MV4-11 cells. Kind of experiment: Proliferation inhibition, MV4-11 cells (CellTiter-Glo). The class given is cell-based. To be noted: MV4-11, 72 h, 3 days culture. On the procedure:
as §1, with “MV4-11” for “KG-1”, “(Mol. Cell Proteomics. 2009; 8(7):1751-1764).” for “(J. Immunol. 1994; 152(2):557-565).”, “CRL-9591)” for “CCL-246)”, “an Iscove's Modified Dulbecco's Medium” for “RPMI1640 medium”, “contain […]” for “containing”, “solution” for “solutions”
(In general: Cellular ATP, detected with luciferase, serves as a proxy for viable cell number.)

Experiment [3] relates to human histiocytic lymphoma cell line U-937 cells. In words: Proliferation inhibition, U-937 cells (CellTiter-Glo). It is filed as cell-based. To be noted: U-937, 72 h, 3 days culture. The procedure: U-937 is a cell line originated from human histiocytic lymphoma and the BTK expression has been confirmed (J. Immunol. 1994; 152(2):557-565). The human histiocytic lymphoma cell line U-937 cells (Sumitomo Dainippon Pharma Co., Ltd.) cultured in RPMI1640 medium (Sigma) containing 10% bovine serum were seeded into 96 well plates. On the same day, DMSO solutions of the test compound B at a final concentrations from 1 nM to 10 μM or only DMSO (DMSO group) were added thereto to culture the cells at 37° C. in 5% CO2 for 3 days. Thereafter, the cell number was measured using a cell counting reagent (CellTiter-Glo (registered trademark) Luminescent Cell Viability Assay (Promega)). The cell proliferation inhibition rate was calculated as the measured value in the DMSO group set as 0% inhibition and the measured value in the well only with the medium on which the cells have not been seeded set as 100% inhibition.

Experiment [4] deals with human anaplastic large cell lymphoma cell line SU-DHL-1 cells. Kind of experiment: Proliferation inhibition, SU-DHL-1 cells (CellTiter-Glo). The class given is cell-based. The conditions noted are these: SU-DHL-1, 96 h, 4 days culture. The procedure: SU-DHL-1 is a cell line originated from human anaplastic large cell lymphoma and the activation of JAK 3 has been confirmed (Leukemia. 2014; 28:941-944). The human anaplastic large cell lymphoma cell line SU-DHL-1 cells (American Type Culture Collection, CRL-2955) cultured in RPMI1640 medium (Sigma) containing 10% bovine serum were seeded into 96 well plates. On the same day, DMSO solutions of the test compound B at a final concentrations from 1 nM to 10 μM or only DMSO (DMSO group) was added thereto to culture the cells at 37° C. in 5% CO2 for 4 days. Thereafter, the cell number was measured using a cell counting reagent (CellTiter-Glo (registered trademark) Luminescent Cell Viability Assay (Promega)). The cell proliferation inhibition rate was calculated as the measured value in the DMSO group set as 0% inhibition and the measured value in the well only with the medium on which the cells have not been seeded set as 100% inhibition.

Experiment [5] relates to human acute T cell lymphoma cell line Jurkat 6.1E cells. Kind of experiment: Proliferation inhibition, Jurkat 6.1E cells (CellTiter-Glo). It is filed as cell-based. The conditions noted are these: 96 h, 4 days culture. The procedure:
Jurkat 6.1E is a cell line originated from human acute T cell lymphoma and the ITK expression has been confirmed (Mol. Pharmacol. 2012; 82:938-947). The human acute T cell lymphoma cell line Jurkat 6.1E cells (European Collection of Cell Cultures, 88042803) cultured in RPMI1640 medium (Sigma) containing 10% bovine serum were seeded into 96 well plates. On the same day, DMSO solutions of the test compound B at a final concentrations from 1 nM to 10 μM or only DMSO (DMSO group) were added thereto to culture the cells at 37° C. in 5% CO2 for 4 days. Thereafter, the cell number was measured using a cell counting reagent (CellTiter-Glo (registered trademark) Luminescent Cell Viability Assay (Promega)). The cell proliferation inhibition rate was calculated as the measured value in the DMSO group set as 0% inhibition and the measured value in the well only with the medium on which the cells have not been inoculated set 100% inhibition.

SMILES strings stand for the structures.

Sequence of BTK kinase (Q06187 whole entry): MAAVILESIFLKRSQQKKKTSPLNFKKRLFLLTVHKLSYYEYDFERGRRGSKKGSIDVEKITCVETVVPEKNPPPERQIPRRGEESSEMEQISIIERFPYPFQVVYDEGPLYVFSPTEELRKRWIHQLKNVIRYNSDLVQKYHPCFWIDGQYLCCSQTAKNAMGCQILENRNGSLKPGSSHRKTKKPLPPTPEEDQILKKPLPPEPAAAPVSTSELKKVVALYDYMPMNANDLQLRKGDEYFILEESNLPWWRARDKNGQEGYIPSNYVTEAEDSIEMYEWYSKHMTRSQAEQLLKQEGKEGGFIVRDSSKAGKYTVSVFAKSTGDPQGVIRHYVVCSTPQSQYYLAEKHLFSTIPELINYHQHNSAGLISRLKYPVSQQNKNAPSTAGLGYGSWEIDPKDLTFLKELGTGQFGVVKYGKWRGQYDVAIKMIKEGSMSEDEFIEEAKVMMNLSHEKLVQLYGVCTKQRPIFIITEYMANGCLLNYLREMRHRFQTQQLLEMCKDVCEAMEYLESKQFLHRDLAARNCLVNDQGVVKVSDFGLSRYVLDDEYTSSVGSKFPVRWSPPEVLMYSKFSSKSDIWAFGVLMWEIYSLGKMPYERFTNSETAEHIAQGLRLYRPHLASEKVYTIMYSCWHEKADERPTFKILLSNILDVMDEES

A word on the IC50: it is the point on the concentration scale where inhibition reaches its midpoint. High values mean weaker potency, low ones greater potency. Regarding `C=CC(=O)N1CC[C@@H](Oc2nc(Nc3ccc(N4CCC(N5CCN(C)CC5)CC4)cc3)c(C(N)=O)nc2CC)C1` [test compound B, 5-{[(3R)-1-acryloylpyrrolidin-3-yl]oxy}-6-ethyl-3-({4-[4-(4-methylpiperazin-1-yl)piperidin-1-yl]phenyl}amino)pyrazine-2-carboxamide monomethanesulfonate], the IC50 worked out at 0.17 nM at BTK kinase; 38 nM in experiment [1]; 10 nM in experiment [2]; 63 nM in experiment [3]; 120 nM in experiment [4]; 940 nM in experiment [5].
